Test [1] relates to CD69 production by B lymphocytes in human whole blood activated with anti-human IgM. Kind of test: CD69 Whole Blood Assay. Type of test: cell-based. The following applies: Lymphocyte, anti-IgM stimulated, CD69 positive of CD20 positive cells. From the text: There is good evidence that B-cells play a key role in the pathogenesis of autoimmune and/or inflammatory disease. Protein-based therapeutics that deplete B cells such as Rituxan are effective against autoantibody-driven inflammatory diseases such as rheumatoid arthritis (Rastetter et al. (2004) Annu Rev Med 55:477). CD69 is the early activation marker in leukocytes including T cells, thymocytes, B cells, NK cells, neutrophils, and eosinophils. The CD69 human whole blood assay (Example 903) determines the ability of compounds to inhibit the production of CD69 by B lymphocytes in human whole blood activated by crosslinking surface IgM with goat F(ab′)2 anti-human IgM.
Human blood is obtained from healthy volunteers, with the following restrictions: 1 week drug-free, non-smokers. Blood (approximately 20 mls to test 8 compounds) is collected by venipuncture into Vacutainer tubes with sodium heparin.
Solutions of Formula I compounds at 1000 or 2000 μM in PBS (20×), are diluted by three-fold serial dilutions in 10% DMSO in PBS for a nine point dose-response curve. An aliquot of 5.5 μl of each compound is added in duplicate to a 2 ml 96-well plate; 5.5 μl of 10% DMSO in PBS is added as control and no-stimulus wells. Human whole blood—HWB (100 μl) is added to each well. After mixing the plates are incubated at 37° C., 5% CO2, 100% humidity for 30 minutes. Goat F(ab′)2 anti-human IgM (10 μl of a 500 μg/ml solution, 50 μg/ml final) is added to each well (except the no-stimulus wells) with mixing and the plates are incubated for an additional 20 hours. At the end of the 20 hour incubation, samples are incubated with fluorescent labeled antibodies for 30 minutes, at 37° C., 5% CO2, 100% humidity. Include induced control, unstained and single stains for compensation adjustments and initial voltage settings. Samples are then lysed with Pharmingen Lyse according to the manufacturer's instructions. Samples are then transferred to a 96 well plate suitable to be run on the AMS 96 well system on the BD Calibur FACs machine. Data acquired and Mean Fluorescence Intensity values were obtained using Cell Quest Software. Results are initially analyzed by FACS analysis software (Flow Jo).

Test [2] deals with p110 delta (Homo sapiens (Human), UniProt O00329). Put plainly: PI3K isoform inhibition assay, p110 delta (fluorescence polarization displacement). Format: biochemical.
In test [3] the target is p110 alpha (Homo sapiens (Human), UniProt P42336). Put plainly: PI3K isoform inhibition assay, p110 alpha (for alpha/delta selectivity). The following applies: ratio of biochemical IC50 values. A digest of the protocol:
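Fluorescence polarization displacement of a fluorescent PIP3 probe from GRP-1 detector by PI3K-formed PIP3; p110α/p85α at 40 ng/mL with 10 μM PIP2 substrate.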

The IC50 is the midpoint of a concentration-inhibition curve. Low readings indicate inhibition by little substance, high ones a need for much substance.

A value given as a limit tells only on which side of the number the result lay.

p110 delta, sequence (O00329 whole entry, canonical isoform): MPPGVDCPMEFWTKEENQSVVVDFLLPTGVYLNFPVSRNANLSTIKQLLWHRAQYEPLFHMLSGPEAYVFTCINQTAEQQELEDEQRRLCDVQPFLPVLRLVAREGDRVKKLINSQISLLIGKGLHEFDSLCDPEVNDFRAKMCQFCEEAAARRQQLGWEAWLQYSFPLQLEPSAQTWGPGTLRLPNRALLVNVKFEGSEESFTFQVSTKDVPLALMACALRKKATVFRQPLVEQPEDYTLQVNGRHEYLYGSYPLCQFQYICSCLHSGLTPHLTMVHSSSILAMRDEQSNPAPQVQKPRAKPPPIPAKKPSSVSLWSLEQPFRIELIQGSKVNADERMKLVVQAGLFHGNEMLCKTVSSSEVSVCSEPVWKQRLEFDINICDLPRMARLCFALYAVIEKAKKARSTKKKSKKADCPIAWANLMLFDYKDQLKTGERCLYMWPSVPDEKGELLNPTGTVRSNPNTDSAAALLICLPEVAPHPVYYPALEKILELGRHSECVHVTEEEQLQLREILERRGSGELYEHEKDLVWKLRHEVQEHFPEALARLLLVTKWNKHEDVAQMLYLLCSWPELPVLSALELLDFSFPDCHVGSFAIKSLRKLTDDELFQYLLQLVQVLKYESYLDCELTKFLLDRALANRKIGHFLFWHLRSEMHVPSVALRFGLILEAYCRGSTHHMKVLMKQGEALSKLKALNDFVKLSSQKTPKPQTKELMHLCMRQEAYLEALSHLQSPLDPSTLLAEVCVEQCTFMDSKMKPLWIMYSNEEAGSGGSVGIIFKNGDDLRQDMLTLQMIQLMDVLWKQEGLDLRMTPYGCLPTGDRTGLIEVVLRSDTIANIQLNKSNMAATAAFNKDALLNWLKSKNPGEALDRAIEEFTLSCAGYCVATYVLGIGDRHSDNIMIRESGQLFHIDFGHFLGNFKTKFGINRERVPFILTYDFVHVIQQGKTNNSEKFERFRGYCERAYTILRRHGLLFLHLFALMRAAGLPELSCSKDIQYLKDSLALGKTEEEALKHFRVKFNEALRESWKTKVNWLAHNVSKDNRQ
p110 delta, sequence (P27986 whole entry partner, canonical isoform): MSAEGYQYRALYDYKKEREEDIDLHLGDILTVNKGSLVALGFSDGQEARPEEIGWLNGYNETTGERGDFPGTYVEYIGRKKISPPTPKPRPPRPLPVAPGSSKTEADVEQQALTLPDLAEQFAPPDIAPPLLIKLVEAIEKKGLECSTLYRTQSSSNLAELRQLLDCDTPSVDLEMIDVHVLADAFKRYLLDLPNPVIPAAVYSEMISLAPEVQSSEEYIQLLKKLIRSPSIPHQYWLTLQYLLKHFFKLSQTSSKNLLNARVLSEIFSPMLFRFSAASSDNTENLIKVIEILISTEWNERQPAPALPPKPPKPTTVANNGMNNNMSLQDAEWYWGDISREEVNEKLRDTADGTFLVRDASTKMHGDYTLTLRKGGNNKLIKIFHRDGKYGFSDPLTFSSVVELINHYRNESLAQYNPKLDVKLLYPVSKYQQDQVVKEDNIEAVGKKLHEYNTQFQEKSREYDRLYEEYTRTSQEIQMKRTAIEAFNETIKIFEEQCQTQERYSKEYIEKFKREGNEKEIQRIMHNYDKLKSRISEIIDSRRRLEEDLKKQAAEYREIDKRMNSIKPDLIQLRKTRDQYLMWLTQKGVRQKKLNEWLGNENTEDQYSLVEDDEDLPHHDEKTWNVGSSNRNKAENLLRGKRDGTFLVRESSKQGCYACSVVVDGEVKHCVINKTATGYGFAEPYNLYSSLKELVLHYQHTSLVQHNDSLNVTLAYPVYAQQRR
p110 alpha, sequence (P42336 whole entry, canonical isoform): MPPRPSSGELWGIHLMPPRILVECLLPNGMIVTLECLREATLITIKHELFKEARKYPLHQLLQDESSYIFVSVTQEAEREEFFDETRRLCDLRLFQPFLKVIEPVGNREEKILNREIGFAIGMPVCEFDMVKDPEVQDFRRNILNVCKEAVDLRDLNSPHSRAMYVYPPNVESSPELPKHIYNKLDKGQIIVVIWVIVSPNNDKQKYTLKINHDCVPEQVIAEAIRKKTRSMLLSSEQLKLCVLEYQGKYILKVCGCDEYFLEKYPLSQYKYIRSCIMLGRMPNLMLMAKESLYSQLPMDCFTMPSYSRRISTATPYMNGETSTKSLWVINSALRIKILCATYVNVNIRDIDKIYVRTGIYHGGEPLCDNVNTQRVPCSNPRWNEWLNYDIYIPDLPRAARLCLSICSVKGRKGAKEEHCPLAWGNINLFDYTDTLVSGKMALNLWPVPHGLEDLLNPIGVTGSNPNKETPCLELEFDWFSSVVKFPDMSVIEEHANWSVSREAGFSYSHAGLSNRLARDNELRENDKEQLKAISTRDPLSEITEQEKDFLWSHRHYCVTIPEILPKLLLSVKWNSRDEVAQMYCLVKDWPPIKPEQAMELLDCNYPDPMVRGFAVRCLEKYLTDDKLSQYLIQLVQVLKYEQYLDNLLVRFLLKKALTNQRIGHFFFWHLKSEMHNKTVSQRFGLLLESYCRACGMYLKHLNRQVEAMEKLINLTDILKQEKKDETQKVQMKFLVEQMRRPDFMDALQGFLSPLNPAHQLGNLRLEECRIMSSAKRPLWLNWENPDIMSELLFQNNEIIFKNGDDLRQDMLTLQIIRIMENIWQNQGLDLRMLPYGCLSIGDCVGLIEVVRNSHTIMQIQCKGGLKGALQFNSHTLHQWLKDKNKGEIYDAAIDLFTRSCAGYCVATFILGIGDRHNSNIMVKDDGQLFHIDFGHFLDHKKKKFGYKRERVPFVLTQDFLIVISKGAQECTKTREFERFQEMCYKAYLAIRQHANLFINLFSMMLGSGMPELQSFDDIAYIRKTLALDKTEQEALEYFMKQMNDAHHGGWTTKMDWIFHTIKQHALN
p110 alpha, sequence (P27986 whole entry partner, canonical isoform): as the sequence (P27986 whole entry partner, canonical isoform) above

Regarding `CC(C)n1ncnc1-c1cn2c(n1)-c1cc(CN3CCN(C(C)(C)C)CC3)ccc1OCC2` [Example 108, 10-((4-tert-butylpiperazin-1-yl)methyl)-2-(1-isopropyl-1H-1,2,4-triazol-5-yl)-5,6-dihydrobenzo[f]imidazo[1,2-d][1,4]oxazepine], the IC50 in test [1] worked out at 40.5 nM; in test [2], 2.46 nM. In test [3], the “IC50 p110 alpha/IC50 p110 delta” value is reported as 21.8.

Turning to `CC(C)n1ncnc1-c1cn2c(n1)-c1cc(C(=O)N3CCN(C(C)(C)C)CC3)ccc1OCC2` [Example 110, (4-tert-butylpiperazin-1-yl)(2-(1-isopropyl-1H-1,2,4-triazol-5-yl)-5,6-dihydrobenzo[f]imidazo[1,2-d][1,4]oxazepin-10-yl)methanone], the IC50 in test [1] stood at 129 nM; in test [2] it was 0.919 nM. The “IC50 p110 alpha/IC50 p110 delta” value in test [3] came to 27.1.

With `CC(C)n1ncnc1-c1cn2c(n1)-c1cnc(N3CCCC3C3CCN(C)CC3)cc1OCC2` (centres unmarked) [Example 115, 2-(1-isopropyl-1H-1,2,4-triazol-5-yl)-9-(2-(1-methylpiperidin-4-yl)pyrrolidin-1-yl)-5,6-dihydroimidazo[1,2-d]pyrido[3,4-f][1,4]oxazepine], the IC50 in test [1] was determined as 38.1 nM.

For the compound `CC(C)n1ncnc1-c1cn2c(n1)-c1ccc(-c3ccnn3C3CCN(C)CC3)cc1OCC2` [Example 160, 2-(1-isopropyl-1H-1,2,4-triazol-5-yl)-9-(1-(1-methylpiperidin-4-yl)-1H-pyrazol-5-yl)-5,6-dihydrobenzo[f]imidazo[1,2-d][1,4]oxazepine], in test [1], half-maximal inhibition (IC50) was put at 45.9 nM.

In turn, `Cc1nc(-c2cn3c(n2)-c2ccc(-c4cnn(C)c4C4CCCN(C(C)(C)CO)C4)cc2OCC3)n(C(C)C)n1` (centres unmarked) [Example 248, 2-(3-(4-(2-(1-isopropyl-3-methyl-1H-1,2,4-triazol-5-yl)-5,6-dihydrobenzo[f]imidazo[1,2-d][1,4]oxazepin-9-yl)-1-methyl-1H-pyrazol-5-yl)piperidin-1-yl)-2-methylpropan-1-ol] registered an IC50 in test [1] of 49.7 nM.

The compound `Cc1nc(-c2cn3c(n2)-c2ccc(N4CCC[C@@H]4C4CCN(C(C)C)CC4)cc2OCC3)n(C(C)C)n1` [Example 263, (R)-2-(1-isopropyl-3-methyl-1H-1,2,4-triazol-5-yl)-9-(2-(1-isopropylpiperidin-4-yl)pyrrolidin-1-yl)-5,6-dihydrobenzo[f]imidazo[1,2-d][1,4]oxazepine] had an IC50 in test [1] of 45.8 nM. The IC50 values of the last two compounds are within 1.5-fold of each other.

`Cc1nc(-c2cn3c(n2)-c2cc(-c4cnn(C)c4C4CCCN(C(C)C)C4)c(F)cc2OCC3)n(C(C)C)n1` (centres unmarked) [Example 359, 9-fluoro-2-(2-isopropyl-5-methyl-1,2,4-triazol-3-yl)-10-[5-(1-isopropyl-3-piperidyl)-1-methyl-pyrazol-4-yl]-5,6-dihydroimidazo[1,2-d][1,4]benzoxazepine] registered an IC50 in test [2] of 0.37 nM. Besides, in test [3], the “IC50 p110 alpha/IC50 p110 delta” value came out at 54.1.

`Cc1nc(-c2cn3c(n2)-c2ccc(-c4cn[nH]c4C4CCCN(C(C)C)C4)cc2OCC3)n(C(C)C)n1` (centres unmarked) [Example 360, 2-(2-isopropyl-5-methyl-1,2,4-triazol-3-yl)-9-[5-(1-isopropyl-3-piperidyl)-1H-pyrazol-4-yl]-5,6-dihydroimidazo[1,2-d][1,4]benzoxazepine] came in with an IC50 in test [2] of 0.311 nM. In test [3], the “IC50 p110 alpha/IC50 p110 delta” value was determined as 24.

Consider `Cc1nc(-c2cn3c(n2)-c2ccc(-c4cn[nH]c4C4CCCN(C(C)C)C4)cc2OCC3)n(C(C)C)n1` (centres unmarked) [Example 361, 2-(2-isopropyl-5-methyl-1,2,4-triazol-3-yl)-9-[5-(1-isopropyl-3-piperidyl)-1H-pyrazol-4-yl]-5,6-dihydroimidazo[1,2-d][1,4]benzoxazepine], for which the 50% inhibitory concentration (IC50) in test [2] was determined as 0.972 nM. Further, the “IC50 p110 alpha/IC50 p110 delta” value in test [3] is 23.6.

Compound `Cc1nc(-c2cn3c(n2)-c2cc([C@H](C)N4CCN(C(C)(C)CO)CC4)ncc2OCC3)n(C(C)C)n1` [Example 364, (S)-2-(4-(1-(2-(1-isopropyl-3-methyl-1H-1,2,4-triazol-5-yl)-5,6-dihydroimidazo[1,2-d]pyrido[4,3-f][1,4]oxazepin-10-yl)ethyl)piperazin-1-yl)-2-methylpropan-1-ol] displayed an IC50 in test [2] of 2.1 nM. Also, in test [3], the “IC50 p110 alpha/IC50 p110 delta” value was 85.9.

In the case of `Cc1nc(-c2cn3c(n2)-c2cc([C@@H](C)N4CCN(C(C)(C)CO)CC4)ncc2OCC3)n(C(C)C)n1` [Example 365, (R)-2-(4-(1-(2-(1-isopropyl-3-methyl-1H-1,2,4-triazol-5-yl)-5,6-dihydroimidazo[1,2-d]pyrido[4,3-f][1,4]oxazepin-10-yl)ethyl)piperazin-1-yl)-2-methylpropan-1-ol], in test [2], the IC50 was determined as 2.63 nM. In test [3], the “IC50 p110 alpha/IC50 p110 delta” value is 83.2.

For `Cc1nc(-c2cn3c(n2)-c2ccc(-c4cnn(C)c4C4CN(C(C)C)CCN4C)cc2OCC3)n(C(C)C)n1` (centres unmarked) [Example 366, 9-[5-(4-isopropyl-1-methyl-piperazin-2-yl)-1-methyl-pyrazol-4-yl]-2-(2-isopropyl-5-methyl-1,2,4-triazol-3-yl)-5,6-dihydroimidazo[1,2-d][1,4]benzoxazepine], the IC50 in test [2] was under 0.035 nM. The “IC50 p110 alpha/IC50 p110 delta” value in test [3] is 172.

`Cc1nc(-c2cn3c(n2)-c2ccc(-c4cnn(C)c4N4CCN(C)[C@H](C(C)C)C4)cc2OCC3)n(C(C)C)n1` [Example 367, 9-[5-[(3R)-3-isopropyl-4-methyl-piperazin-1-yl]-1-methyl-pyrazol-4-yl]-2-(2-isopropyl-5-methyl-1,2,4-triazol-3-yl)-5,6-dihydroimidazo[1,2-d][1,4]benzoxazepine] displayed an IC50 in test [2] of 0.048 nM. Besides, the “IC50 p110 alpha/IC50 p110 delta” value in test [3] is 48.8.

For `COc1cc2c(cc1[C@@H](C)N1CCN(C(C)(C)C)CC1)-c1nc(-c3nc(C)nn3C(C)C)cn1CCO2` [Example 368, 10-[(1R)-1-(4-tert-butylpiperazin-1-yl)ethyl]-2-(2-isopropyl-5-methyl-1,2,4-triazol-3-yl)-9-methoxy-5,6-dihydroimidazo[1,2-d][1,4]benzoxazepine], the IC50 in test [2] stood at 1.06 nM. The “IC50 p110 alpha/IC50 p110 delta” value in test [3] stood at 92.4.

Take `Cc1nc(-c2cn3c(n2)-c2ccc(-n4ccnc4C4CCCN(C(C)C)C4)cc2OCC3)n(C(C)C)n1` (centres unmarked) [Example 369, 2-(2-isopropyl-5-methyl-1,2,4-triazol-3-yl)-9-[2-(1-isopropyl-3-piperidyl)imidazol-1-yl]-5,6-dihydroimidazo[1,2-d][1,4]benzoxazepine]: the IC50 in test [2] worked out at 3.09 nM. The “IC50 p110 alpha/IC50 p110 delta” value in test [3] amounted to 40.4.

As to `Cc1nc(-c2cn3c(n2)-c2cnc(-c4cnn(C)c4C4CCCN(C(C)C)C4)cc2OCC3)n(C(C)C)n1` (centres unmarked) [Example 370, 2-(1-isopropyl-3-methyl-1H-1,2,4-triazol-5-yl)-9-(5-(1-isopropylpiperidin-3-yl)-1-methyl-1H-pyrazol-4-yl)-5,6-dihydroimidazo[1,2-d]pyrido[3,4-f][1,4]oxazepine], the IC50 in test [2] was determined as 0.571 nM. Besides, the “IC50 p110 alpha/IC50 p110 delta” value in test [3] was 16.1.

In test [2], `COc1cc2c(cc1[C@H](C)N1CCN(C(C)(C)C)CC1)-c1nc(-c3nc(C)nn3C(C)C)cn1CCO2` [Example 371, 10-[(1S)-1-(4-tert-butylpiperazin-1-yl)ethyl]-2-(2-isopropyl-5-methyl-1,2,4-triazol-3-yl)-9-methoxy-5,6-dihydroimidazo[1,2-d][1,4]benzoxazepine] gave an IC50 of 5.3 nM. The “IC50 p110 alpha/IC50 p110 delta” value in test [3] is reported as 11.7.

For the compound `Cc1nc(-c2cn3c(n2)-c2ccc(-c4cnn(C)c4C4CN(C(C)C)CCO4)cc2OCC3)n(C(C)C)n1` (centres unmarked) [Example 372, 2-(2-isopropyl-5-methyl-1,2,4-triazol-3-yl)-9-[5-(4-isopropylmorpholin-2-yl)-1-methyl-pyrazol-4-yl]-5,6-dihydroimidazo[1,2-d][1,4]benzoxazepine], the IC50 in test [2] was found to be 0.992 nM. The “IC50 p110 alpha/IC50 p110 delta” value in test [3] turned out to be 18.

Regarding `Cc1nc(-c2cn3c(n2)-c2cc(C(C)N4CCN(C)CC4)c(F)cc2OCC3)n(C(C)C)n1` (centres unmarked) [Example 373, 9-fluoro-2-(2-isopropyl-5-methyl-1,2,4-triazol-3-yl)-10-[1-(4-methylpiperazin-1-yl)ethyl]-5,6-dihydroimidazo[1,2-d][1,4]benzoxazepine], the IC50 in test [2] stood at 3.13 nM. Moreover, the “IC50 p110 alpha/IC50 p110 delta” value in test [3] was determined as 15.7.

For `CCN1CCN(C(C)c2cc3c(cc2F)OCCn2cc(-c4nc(C)nn4C(C)C)nc2-3)CC1` (centres unmarked) [Example 374, 10-[1-(4-ethylpiperazin-1-yl)ethyl]-9-fluoro-2-(2-isopropyl-5-methyl-1,2,4-triazol-3-yl)-5,6-dihydroimidazo[1,2-d][1,4]benzoxazepine], in test [2], the IC50 was determined as 4.85 nM. Also, the “IC50 p110 alpha/IC50 p110 delta” value in test [3] is listed as 17.9.

Values taken from US9090628B2, “Benzoxazepin compounds selective for PI3K P110 delta and methods of use” (GENENTECH, INC., priority 2011, dated 2015).
